From ChEMBL document CHEMBL3507680, “University of Dundee, Gates Library screen for HepG2 cell viability”

Test: Human HepG2 cell viability assay in 384 well format
Assay type: toxicity, cell-based
Set-up: dose 125 nL, time 70.5 hour; concentration not given beside the values
Details: HepG2 cells, read-out: Inhibition

Row | Structure (SMILES) | cytotoxicity at 70.5 h [%]
1 | Cc1cc(NC(=O)NCC(O)c2ccc(F)c(F)c2)n(C)n1 (stereo not given) | 13.9
2 | Cc1ccc(C(O)CNC(=O)Nc2cc(C)nn2C)cc1 (stereo not given) | -3.09
3 | COc1ccc(OC)c(C(O)CNC(=O)Nc2cc(C)nn2C)c1 (stereo not given) | -7.8
4 | CC(Cn1ccnc1)NC(=O)NCc1ccccn1 (stereo not given) | -15.6
5 | Cc1noc2ncc(C(=O)NCC3CCCOC3)cc12 (stereo not given) | -8.17
6 | Cc1cc(C)c(CNC(=O)C2CCN(c3cnccn3)CC2)c(=O)[nH]1 | -3.48
7 | CCn1ccnc1CN1CCN(CCC(=O)NC2CCCCC2)CC1 | -6.92
8 | CCC(C)NC(=O)CCNC(=O)Nc1ccc(-n2cncn2)c(F)c1 (stereo not given) | -10.1
9 | O=C(CC1C=CCC1)Nc1ncn(CC(=O)N2CCCCCC2)n1 (stereo not given) | -13.4
10 | Cc1cc(C)n(CCC(=O)N2CCC(Nc3cccnn3)CC2)n1 | -12.8
11 | CCCNC(=O)NC(=O)CN1CCN(Cc2nccn2CC)CC1 | -9.22
12 | CN(C(=O)Nc1ccncc1)C1CCN(c2ccccc2)C1=O (stereo not given) | -11.8
13 | CN(Cc1csc(-c2cnn(C)c2)n1)CC1CCN(CCO)CC1 | 18.5
14 | c1ccc(-c2nc(CNCC3CCCN3c3cccnn3)co2)cc1 (stereo not given) | 12.4
15 | c1cnnc(N2CCCC2CNCc2cscn2)c1 (stereo not given) | -15
16 | Cc1ccsc1C(=O)N(C)Cc1ccncc1 | -7.89
17 | CCn1cc(NC(=O)NCC(c2ccc(OC)cc2)N(C)C)cn1 (stereo not given) | -5.2
18 | CC(C)(C)c1noc(CN2CCCCC2Cn2cncn2)n1 (stereo not given) | -0.0275
19 | CN(CC1COc2ccccc2O1)C(=O)CCn1cncn1 (stereo not given) | -9.47
20 | Cc1ccc(CN(C)C(=O)c2scnc2C)cc1 | -3.98
21 | Cc1ccccc1CNC(=O)Cn1nc(-c2ccc(F)cc2)oc1=O | -9.26
22 | COc1ccccc1CNC(=O)Cn1nc(-c2ccc(F)cc2)oc1=O | 10.9

Row | Structure (SMILES) | cytotoxicity at 70.5 h [%]
23 | CN(CC1COc2ccccc2O1)C(=O)NCCCn1cccn1 (stereo not given) | -8.71
24 | CCn1cc(NC(=O)NCC(c2cccc(OC)c2)N(C)C)cn1 (stereo not given) | -8.98
25 | Cc1c(C(=O)NCc2ccnc(OCC(F)(F)F)c2)cnn1C | -4.98
26 | COc1cc(CNC(=O)c2c(C)noc2C)ccn1 | -4.45
27 | Cc1cc(C)n(-c2ccc(CNCc3ccc(F)cc3F)cn2)n1 | -11.6
28 | Cc1cccnc1NC(=O)N(CCO)Cc1ccsc1 | -4.42
29 | Cc1ccc(C(=O)N2CCC(Oc3ccc(C)c(C)c3)CC2)c(=O)[nH]1 | -2.32
30 | Cc1cnn(CC2CN(c3nnc(C)c(C)c3C#N)CCO2)c1 (stereo not given) | -3.86
31 | COc1cccc(CCC(=O)N2CCN(CC(C)(C)O)CC2)c1 | 10.1
32 | CC(C)(O)CN1CCN(C(=O)COCc2ccccc2Cl)CC1 | -0.918
33 | COCCN1CCN(Cc2csc(-c3cnn(C)c3)n2)CC1 | -7.26
34 | CC(C)c1nnc2n1CCN(CCC(=O)N1CCc3ccccc31)C2 | -5.29
35 | Cc1cn2c(n1)CCC(NC(=O)c1ccc(S(C)(=O)=O)o1)C2 (stereo not given) | 6.89
36 | CCOCCN1CCN(Cc2csc(-c3cnn(C)c3)n2)CC1 | -13.2
37 | CS(=O)(=O)Cc1ccc(C(=O)NC2CCc3nccn3C2)o1 (stereo not given) | -6.33
38 | Cc1noc(C)c1CC(=O)NCc1ccnc(OCC(F)(F)F)c1 | -7.45
39 | COc1cc(CNCc2ccc(-n3nc(C)cc3C)nc2)cc(OC)c1 | -5.72
40 | CN(C)C1CCN(C(=O)Cc2csc(-c3ncccn3)n2)CC1 | 0.448
41 | CC(NC(=O)CCCc1nc(C(C)(C)C)no1)c1ccccn1 (stereo not given) | 10.9
42 | CN(C)c1ccc(C(=O)Nc2cn[nH]c2)cc1 | -2.5
43 | COCC(=O)NC(C)c1cccc(Br)c1 (stereo not given) | -2.66
44 | Cc1ccc(C(=O)Nc2cn[nH]c2)cc1 | -6.42

Row | Structure (SMILES) | cytotoxicity at 70.5 h [%]
45 | CN(Cc1ccco1)C(=O)NC1CCCN(c2ncccn2)C1 (stereo not given) | 8.71
46 | Cc1noc(CCCC(=O)NC(C)c2ccc(Cl)s2)n1 (stereo not given) | -7.88
47 | Cc1cc(CN2CCN(C(=O)NC(C)Cn3cccn3)CC2)no1 (stereo not given) | -9.58
48 | Cc1cc(CN(C)C(=O)NC2CCN(c3ncccn3)CC2)no1 | -0.403
49 | O=C(NCCCn1cncn1)N1CCCCCC1 | 1.12
50 | CCN(Cc1ccc2c(c1)OCCO2)C(=O)c1ccc(C)[nH]c1=O | -1.79
51 | CCOc1ccc(CN(CC)C(=O)c2ccc(C)[nH]c2=O)cc1OC | -0.243
52 | CC(=O)N1CCCN(C(=O)NCCCn2cncn2)CC1 | -0.358
53 | CN1CCCC1CNC(=O)CCCOc1cccc(Br)c1 (stereo not given) | 17.7
54 | O=C(NCCCn1cncn1)N1CCC(N2CCCCC2)CC1 | -2.83
55 | O=C(CCc1ccncc1)N1CCCC(n2cccn2)C1 (stereo not given) | -1.5
56 | O=C(CCCc1ccccn1)N1CCCC(n2cccn2)C1 (stereo not given) | -3.36
57 | O=C(CCc1ccco1)N1CCCC(n2cccn2)C1 (stereo not given) | -0.72
58 | COc1ccc(C(=O)Nc2cnn(CCN3CCOCC3)c2)c(O)c1 | 0.79
59 | CC(=O)N1CCCCCC1C1CCN(c2ncccc2C#N)CC1 (stereo not given) | -1.45
60 | Cc1cnn(CCNCc2csc(-c3ccco3)n2)c1 | 18
61 | Cc1cnn(CCNCc2csc(-c3ncccn3)n2)c1 | 18.5
62 | CCNc1cc2c(nn1)CCN(C(=O)c1ccnc(-n3ccnc3)c1)C2 | -6.16
63 | CCOCC(O)CN1CCN(C(=O)c2ccc(C)nc2)CC1 (stereo not given) | 0.688
64 | COCC(c1cccc(C(F)(F)F)c1)N(C)C(=O)c1cnccn1 (stereo not given) | -9.11
65 | CCn1nc2c(cc1=O)CN(Cc1nnc(C3CC3)o1)CC2 | 2.46
66 | c1coc(-c2nc(CN3CCn4c(nnc4C4CC4)C3)cs2)c1 | -8.26

Row | Structure (SMILES) | cytotoxicity at 70.5 h [%]
67 | Cn1nc2c(cc1=O)CN(Cc1nc(C3CC3)no1)CC2 | -8.63
68 | CCCOc1cccc(NS(=O)(=O)c2cc(C(=O)O)cs2)c1 | 4.51
69 | COc1c(C2CCCN2Cc2csc(C(C)C)n2)c(C)nn1C (stereo not given) | 41
70 | Cc1nc(CN2CCCC(NCc3c(C)nc4sccn34)C2)no1 (stereo not given) | 1.63
71 | N#Cc1cccc(S(=O)(=O)NC(=O)COC2CCCC2)c1 | 11.3
72 | CC(C)(C)c1nc(CN2CCCC2Cn2cccn2)no1 (stereo not given) | 12.2
73 | CNS(=O)(=O)Cc1ccc(CNC(=O)c2cccc(C)n2)cc1 | -1.09
74 | COc1cc(CNC(=O)c2c(C)noc2C(C)C)ccn1 | -2.32
75 | Cc1noc(C(C)C)c1C(=O)NCc1cccc(N(C)C)c1 | 12.6
76 | Cc1cccnc1NC(=O)NCc1ccc(N2CCNC(=O)C2)cc1 | -10.1
77 | COc1cccc(S(=O)(=O)NC(=O)COC2CCCC2)c1 | -3.13
78 | CC1CN(C(=O)c2ccn(-c3cccc(Cl)c3)n2)CCO1 (stereo not given) | -6.58
79 | CCc1nnc2n1CCN(C(=O)c1cc(Br)c[nH]1)C2 | -5.11
80 | c1csc(-c2nc(CNC3CCc4ncnn4C3)co2)c1 (stereo not given) | -10
81 | COc1cccc(S(=O)(=O)NC(=O)COc2c(C)cccc2C)c1 | -9.64
82 | CCc1nnc2n1CCN(C(=O)c1cc3cc(F)ccc3[nH]1)C2 | 0.76
83 | Cc1ccc(C(=O)Nc2cc(C(C)C)n[nH]2)cn1 | 31.4
84 | CCc1csc(C2CCCN(C(=O)c3ccc(OC)nn3)C2)n1 (stereo not given) | -9.56
85 | CCc1nc(C2CCCN2CC(=O)Nc2nncs2)no1 (stereo not given) | -2.48
